{"source": "patent US10562898B2", "about": "“Substituted benzenesulfonamides as inhibitors of alpha-4 beta-7 integrin activity” (EA PHARMA CO., LTD., priority 2016, dated 2020)", "system": "mouse colitis model induced by transfer of IL-10−/− cells", "experiment": "Mouse colitis model induced by transfer of IL-10−/− cells, intestinal tract weight", "assay_type": "in vivo", "conditions": "oral, three times per day for 14 days", "experimental": "As a method for preparing mouse colitis model induced by transfer of IL-10^−/− cells, used was the method described in J Crohns Colitis. 2013 December; 7 (11): e533-42.\nEach test substance was suspended in a 0.5% methylcellulose aqueous solution to be contained at 30, 10, 3, or 1 mg/mL, and was orally administered with Terumo syringe (1 mL) and a metal probe for mouse in a dose of 10 ml per kilo gram of animal body weight. The administration was performed three times per day for 14 days.\nAn intestinal tract weight as a medicinal effect indicator was measured by the following method. On the final necropsy day, the large intestine from the anus to just before the cecum was taken out, the content in the intestinal tract was washed away with physiological saline, the moisture was lightly removed, and the weight of the large intestine was measured. The inhibitory rate (%) in each of compound administered groups was figured out based on the average value of intestinal tract weights per group under the setting in which a colitis onset group was scored at 0% and a normal group was scored at 100%.", "data": [{"smiles": "Cc1c(C)n(C)c(=O)n(-c2ccc(C[C@H](NC(=O)c3cc(F)c(NS(=O)(=O)c4ccc(NC(=O)C(C)(C)C)cc4)cc3F)C(=O)OC(C)C)cc2)c1=O", "note": "[Compound P2]", "values": [{"measurement": "Inhibitory Rate (%) (intestinal tract weight)", "setting": "Dose 10 mg/kg", "result": 24.6, "unit": "%"}, {"measurement": "Inhibitory Rate (%) (intestinal tract weight)", "setting": "Dose 100 mg/kg", "result": 52.2, "unit": "%"}]}, {"smiles": "CCOC(=O)[C@H](Cc1ccc(-n2c(=O)cc(C)n(C)c2=O)nc1)NC(=O)c1cc(F)c(NS(=O)(=O)c2ccc(NC(=O)C(C)(C)C)cc2)cc1F", "note": "[Compound P52]", "values": [{"measurement": "Inhibitory Rate (%) (intestinal tract weight)", "setting": "Dose 30 mg/kg", "result": 39.9, "unit": "%"}, {"measurement": "Inhibitory Rate (%) (intestinal tract weight)", "setting": "Dose 300 mg/kg", "result": 42.8, "unit": "%"}]}, {"smiles": "CC(C)OC(=O)[C@H](Cc1ccc(-n2c(=O)ccn(C)c2=O)nc1)NC(=O)c1cc(F)c(NS(=O)(=O)c2ccc(NC(=O)C(C)(C)C)cc2)cc1F", "note": "[Compound P59]", "values": [{"measurement": "Inhibitory Rate (%) (intestinal tract weight)", "setting": "Dose 30 mg/kg", "result": 46.7, "unit": "%"}, {"measurement": "Inhibitory Rate (%) (intestinal tract weight)", "setting": "Dose 300 mg/kg", "result": 58.6, "unit": "%"}]}, {"smiles": "CCOC(=O)[C@H](Cc1ccc(-n2c(=O)c(C)cn(C)c2=O)nc1)NC(=O)c1cc(F)c(NS(=O)(=O)c2ccc(NC(=O)C(C)(C)C)cc2)cc1F", "note": "[Compound P69]", "values": [{"measurement": "Inhibitory Rate (%) (intestinal tract weight)", "setting": "Dose 30 mg/kg", "result": 36.1, "unit": "%"}, {"measurement": "Inhibitory Rate (%) (intestinal tract weight)", "setting": "Dose 300 mg/kg", "result": 51.1, "unit": "%"}]}, {"smiles": "Cc1cn(C)c(=O)n(-c2ccc(C[C@H](NC(=O)c3cc(F)c(NS(=O)(=O)c4ccc(NC(=O)C(C)(C)C)cc4)cc3F)C(=O)OCC(C)C)cn2)c1=O", "note": "[Compound P73]", "values": [{"measurement": "Inhibitory Rate (%) (intestinal tract weight)", "setting": "Dose 30 mg/kg", "result": 21.9, "unit": "%"}, {"measurement": "Inhibitory Rate (%) (intestinal tract weight)", "setting": "Dose 300 mg/kg", "result": 38.8, "unit": "%"}]}, {"smiles": "CC(C)COC(=O)[C@H](Cc1ccc(-n2c(=O)ccn(C)c2=O)nc1)NC(=O)c1cc(F)c(NS(=O)(=O)c2ccc(NC(=O)C(C)(C)C)cc2)cc1F", "note": "[Compound P74]", "values": [{"measurement": "Inhibitory Rate (%) (intestinal tract weight)", "setting": "Dose 30 mg/kg", "result": 12.5, "unit": "%"}, {"measurement": "Inhibitory Rate (%) (intestinal tract weight)", "setting": "Dose 300 mg/kg", "result": 47.1, "unit": "%"}]}, {"smiles": "Cc1cc(=O)n(-c2ccc(C[C@H](NC(=O)c3cc(F)c(NS(=O)(=O)c4ccc(NC(=O)C(C)(C)C)cc4)cc3F)C(=O)OCC(C)C)cn2)c(=O)n1C", "note": "[Compound P97]", "values": [{"measurement": "Inhibitory Rate (%) (intestinal tract weight)", "setting": "Dose 30 mg/kg", "result": 17.5, "unit": "%"}, {"measurement": "Inhibitory Rate (%) (intestinal tract weight)", "setting": "Dose 300 mg/kg", "result": 43.6, "unit": "%"}]}]}
